This is an account of results in patent USRE46943E1, “Radioprotector compounds and methods” (PETER MACCALLUM CANCER INSTITUTE, priority 2010, dated 2018).

Series [1] relates to transformed human keratinocyte cell line (FEP 1811). Put plainly: Clonogenic survival cell culture assay for cytotoxicity. The series is classed as cell-based. The settings on record: Homo sapiens, Keratinocyte, light or radiation study; un-irradiated keratinocytes, one hour drug exposure, colonies counted after eight days; read-out: C50 (concentration of radioprotector that results in 50% clonogenic survival). An outline of the steps:
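Mid-log monolayers exposed to test drug for 1 h, then pronase-dispersed and plated; colonies counted after 8 days. For […], irradiation at 0.6 Gy per minute began 30 min after drug addition, with total drug exposure held at 60 min before plating for clonogenic survival.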

Series [2] has as its system mouse jejunum crypt clonogens. The experiment in a line: Radioprotection of mouse jejunum by intravenous 2PH (surviving crypt clonogens). The series is classed as in vivo, C3H/HeJ mice. As to the method: C3H/HeJ mice were administered 2PH by intravenous (tail vein) injection (30 mM solution in acetate-buffered saline, pH5; 150 mg/kg) 2 hours prior to whole body irradiation (up to 19 Gy) with ^137Cs γ-rays (GammaCell 40 Irradiator, Nordion International Inc., Canada) at a dose rate of 0.73 Gy/min, in groups of 5. The mice were euthanised 3 days 14 hours post-irradiation and the jejunum excised. Five 1 cm jejunum sections were taken from each mouse and bundled with micropore tape before being fixed in neutral buffered formalin. Samples are then paraffin embedded, sectioned and stained with Hematoxylin-Eosin. The densely stained colonies (>10 cells) arising from proliferation of surviving crypt clonogens were counted and scored on the basis of colonies per circumference.
The data for each of the two experimental groups was fitted to the expression: N(D)=N0(1−e^−Se^−αD) Where: • N0 is the initial number of clonogens per circumference, • N(D) the number of surviving clonogens per circumference after a radiation dose of D Gy, • S is the number of clonogens per crypt, and • α is the reciprocal of radiation dose corresponding to a lethal event.

In series [3] the test system is mice. Put plainly: Radioprotection of mouse jejunum, subcutaneous administration: local reaction at injection site. The series is classed as in vivo. As to the method:
2-Hydroxypropyl-β-cyclodextrin (HPCD, Sigma-Aldrich, typical MW 1540) vehicle solution was prepared by dissolving 3.6 g of HPCD in 9.3 mL of phosphate buffered saline (PBS) resulting in 30% v/w solution. […] The concentration of M2PB was measured following appropriate dilution in 45% MeOH 0.1% TFA using an extinction coefficient […] at 345 nm. The M2PB/HPCD stock was diluted to 8.75 mg/mL (22 mM) in HPCD vehicle to produce the final M2PB/HPCD formulation, which was injected subcutaneously into mice, between the shoulder blades (scruff of the neck) at a volume of 8×10^−3 ml/g body weight.
The subsequent irradiation and analysis was as described for Example 56.

The mark [4] stands for this setting: subcutaneous solutions in polyethylene glycol (MW 400), similar experiments with the jejunum model.

For the compound `CN1CCN(c2ccc3nc(-c4ccc5nc(-c6ccccn6)[nH]c5c4)[nH]c3c2)CC1` [Example 2, 2-(5′-(5″-(4′″-Methylpiperazin-1′″-yl)benzimidazol-2″-yl)benzimidazol-2′-yl)pyridine], the IC50 in series [1] is 101 µM. In series [2] (150 mg/kg intravenous 2 hours prior to whole body irradiation, control 0.529+/−0.048), the “α (reciprocal of radiation dose corresponding to a lethal event), derived by curve-fitting” value is 0.431+/−0.039 Gy−1. In series [2] (150 mg/kg intravenous, from α control and α 2PH), the dose modification factor is 1.23+/−0.15. Further, the “local reaction or toxicity at the site of subcutaneous injection” value in series [3] (setting [4]) is “had been observed”.

For `c1ccc(-c2nc3ccc(-c4nc5ccc(N6CCOCC6)cc5[nH]4)cc3[nH]2)nc1` [Example 19, 2-(5′-(5″-Morpholinobenzimidazol-2″-yl)benzimidazol-2′-yl)pyridine], the IC50 in series [1] was determined as 150 µM. Besides, the “local reaction or toxicity at the site of subcutaneous injection” value in series [3] (M2PB/HPCD formulation (complex with 2-hydroxypropyl-β-cyclodextrin), 8.75 mg/mL subcutaneous) is reported as “no indication of local reaction or toxicity”; in series [3] (setting [4]), “had been observed”.

For `OC1CCN(c2ccc3nc(-c4ccc5nc(-c6cc7ccccc7cn6)[nH]c5c4)[nH]c3c2)CC1` [Example 23, 3-(5′-(5″-(4′″-Hydroxypiperidin-1′″-yl)benzimidazol-2″-yl)benzimidazol-2′-yl)isoquinoline], the melting point is 222 °C (dec.). The IC50 in series [1] was found to be 589 µM.

Regarding `Cc1ccc(-c2nc3ccc(-c4nc5ccc(N6CCN(C)CC6)cc5[nH]4)cc3[nH]2)nc1` [Example 6, 5-Methyl-2-(5′-(5″-(4′″-methylpiperazin-1′″-yl)benzimidazol-2″-yl)benzimidazol-2′-yl)pyridine], the melting point is 200 to 204 °C. The IC50 in series [1] amounted to 58.4 µM.

For orientation: melting point means the temperature of the solid-liquid transition.
